{"source": "paper PMC12113347", "about": "“Compound 3d Attenuates Metabolic Dysfunction-Associated Steatohepatitis via Peroxisome Proliferator-Activated Receptor Pathway Activation and Inhibition of Inflammatory and Apoptotic Signaling” (Metabolites, 2025)", "key": {"[1]": {"system": "C57BL/6J male mice", "experiment": "HFD-induced MASH model in mice: serum and liver biochemistry, body and liver weight, histology", "format": "in vivo", "conditions": "HFD mice; for body weight: 8 weeks of treatment; for serum TG levels: 8 weeks, fenofibrate 100 mg/kg, elafibranor 30 mg/kg, 3d 3, 10, 30 mg/kg; for liver weight/body weight: indicator for evaluating drug toxicity", "method": "All animal studies were conducted in accordance with national legislation and local guidelines at the Center for Laboratory Animals in Tianjin University of Science and Technology and approved by the Animal Ethics Committee of Tianjin University of Science and Technology (8 March 2022, Tianjin, China). The C57BL/6J male mice (6 weeks) were purchased from Henan Scribex Biotechnology Co, Ltd (Zhenzhou, China). Following a one-week period of acclimatization, the mice were fed a high-fat diet (HFD) comprising 60% fat (TP23300, Trophic Animal Feed High-Tech Co., Ltd., (Nantong, China)) and a low-fat control diet (TP23302, Trophic Animal Feed High-Tech Co., Ltd., (Nantong, China)) for 16 weeks.\nAfter 16 weeks of continuous feeding on a high-fat diet, key indicators were tested to determine modeling success and drug administration was initiated. The mice were randomly divided into seven groups (n = 10) according to their body weight. The groups were as follows: control group (control diet, 0.5% CMC-Na), model group (HFD, 0.5% CMC-Na), positive control group (HFD, 100 mg/kg Fenofibrate), elafibranor group (HFD, 30 mg/kg), and 3d group (HFD, 3, 10, 30 mg/kg). The experiment was conducted over a period of eight weeks.\nAfter fasting for 12 h, the mice were anaesthetized and blood samples were collected, as were the mice liver tissues. The ileal contents were collected and immediately frozen in liquid nitrogen and then transferred to storage at −80 °C. The blood samples were subjected to centrifugation at 3000 rpm/min for 10 min to obtain supernatant serum, which was stored at −80 °C. The liver tissues were weighed, and a portion of the liver was preserved in 4% paraformaldehyde for subsequent pathological sectioning, including staining with H&E, Masson, and Oil Red O. The remaining samples were stored at −80 °C for testing of various biochemical indices.\nThe serum levels of TG, total cholesterol (TC), low-density lipoprotein cholesterol (LDL-C), […] aminotransferase (AST), ALT, and TNF-α were determined according to the instructions of the kit. The levels of glutathione (GSH) and superoxide dismutase (SOD) were measured using liver tissue homogenates. The kits were purchased from the Nanjing Jiancheng Institute of Biological Engineering (Nanjing, China)."}, "[2]": {"conditions": "in vivo; cited from earlier work"}, "[3]": {"experiment": "In vitro stability in DMEM medium, simulated gastric fluid and simulated intestinal fluid (HPLC)", "format": "in vitro ADME", "conditions": "40 μM, 37 °C", "method": "Elafibranor and 3d (40 μM) were dissolved in DMEM medium, as well as in simulated gastric fluid (SGF) and simulated intestinal fluid (SIF), respectively, at 37 °C. The concentration of the compounds was determined within 24 h by HPLC. The HPLC conditions comprised an ACQUITY UPLC BEH C18 column maintained at 40 °C with a mobile phase consisting of 20% ultrapure water and 80% acetonitrile, with a flow rate of 1 mL/min at 360 nm."}}, "data": [{"smiles": "CSc1ccc(C(=O)/C=C/c2cc(C)c(OC(C)(C)C(=O)O)c(C)c2)cc1", "note": "[elafibranor, Elafibranor, reference compound]", "values": [{"measurement": "liver steatosis and lipid accumulation (HE, Oil Red O sections)", "setting": "[1]", "value": "effective in reducing the degree of steatosis and reducing lipid accumulation better than fenofibrate but still could not bring them back to fully normal"}, {"measurement": "body weight", "setting": "[1]", "value": "decrease in body weight"}, {"measurement": "serum TG levels", "setting": "[1]", "value": "decreased and returned to normal levels"}, {"measurement": "liver weight/body weight", "setting": "[1]", "value": "substantial influence on the rise"}, {"measurement": "oral bioavailability", "setting": "[2]", "value": "around 30%"}, {"measurement": "concentration in culture medium (stability)", "setting": "[3]; DMEM, within 24 h", "value": "remained relatively constant"}, {"measurement": "concentration in gastric fluid (stability)", "setting": "[3]; SGF", "value": "decreased significantly after 60 min"}, {"measurement": "concentration in intestinal fluid (stability)", "setting": "[3]; SIF, within 24 h", "value": "remained relatively constant"}]}, {"smiles": "CC(C)OC(=O)C(C)(C)Oc1ccc(C(=O)c2ccc(Cl)cc2)cc1", "note": "[fenofibrate, Fenofibrate, reference compound]", "values": [{"measurement": "liver steatosis and lipid accumulation (HE, Oil Red O sections)", "setting": "[1]", "value": "improved the steatosis and reduced lipid accumulation in the liver to some extent"}, {"measurement": "body weight", "setting": "[1]", "value": "decrease in body weight"}, {"measurement": "serum TG levels", "setting": "[1]", "value": "decreased and returned to normal levels"}, {"measurement": "liver weight/body weight", "setting": "[1]", "value": "substantial influence on the rise"}]}]}
